According to the NIST ThermoML archive (doi:10.1021/je700339f):
Numbers after ± are expanded uncertainties.

Assay: xn = mol fraction of the nth substance listed
Conditions: 298 K, Liquid

ClCCCCCCCl [1,6-dichlorohexane] + CC(=O)N(C)C
mass density [kg/m3]
Conditions	x2 = 0.1002	x2 = 0.1985	x2 = 0.3002	x2 = 0.404	x2 = 0.4943	x2 = 0.6007	x2 = 0.7006	x2 = 0.8012	x2 = 0.8994
100 kPa	1054.5 ± 2.9	1045.2 ± 3	1034.5 ± 3	1023.1 ± 3.1	1012.3 ± 3.2	998.8 ± 3.3	985.3 ± 3.5	970.4 ± 3.7	954.6 ± 3.8
500 kPa	1054.7 ± 2.9	1045.5 ± 3	1034.8 ± 3	1023.4 ± 3.1	1012.5 ± 3.2	999 ± 3.3	985.6 ± 3.5	970.7 ± 3.7	954.8 ± 3.8
1000 kPa	1055.1 ± 2.9	1045.9 ± 3	1035.2 ± 3.1	1023.7 ± 3.1	1012.9 ± 3.3	999.3 ± 3.3	985.9 ± 3.5	971 ± 3.7	955.1 ± 3.8
1500 kPa	1055.5 ± 2.9	1046.2 ± 3	1035.6 ± 3.1	1024.1 ± 3.1	1013.3 ± 3.3	999.6 ± 3.3	986.2 ± 3.5	971.3 ± 3.7	955.4 ± 3.8
2000 kPa	1055.8 ± 2.9	1046.6 ± 3	1035.9 ± 3.1	1024.4 ± 3.1	1013.6 ± 3.3	1000 ± 3.3	986.5 ± 3.5	971.6 ± 3.7	955.7 ± 3.8
2500 kPa	1056.2 ± 2.9	1046.9 ± 3	1036.2 ± 3.1	1024.8 ± 3.1	1013.9 ± 3.3	1000.3 ± 3.3	987 ± 3.5	972 ± 3.7	956.1 ± 3.8
2900 kPa	–	–	–	–	1014.3 ± 3.3	–	–	–	–
3000 kPa	1056.5 ± 2.9	1047.3 ± 3	1036.6 ± 3.1	1025.1 ± 3.1	–	1000.6 ± 3.3	987.2 ± 3.5	972.3 ± 3.7	956.4 ± 3.8
3500 kPa	1056.9 ± 3	1047.6 ± 3	1036.8 ± 3.1	1025.4 ± 3.1	1014.6 ± 3.3	1001 ± 3.3	987.6 ± 3.5	972.6 ± 3.7	956.6 ± 3.8
4000 kPa	1057.2 ± 3	1047.9 ± 3	1037.2 ± 3.1	1025.7 ± 3.1	1014.9 ± 3.2	1001.4 ± 3.3	987.9 ± 3.5	972.9 ± 3.7	957 ± 3.9
4500 kPa	1057.6 ± 3	1048.3 ± 3	1037.5 ± 3.1	1026.1 ± 3.1	1015.3 ± 3.3	1001.6 ± 3.3	988.2 ± 3.5	973.2 ± 3.7	957.2 ± 3.8
5000 kPa	1057.9 ± 3	1048.6 ± 3	1037.9 ± 3.1	1026.5 ± 3.1	1015.6 ± 3.3	1002 ± 3.3	988.5 ± 3.5	973.5 ± 3.7	957.6 ± 3.8
5500 kPa	1058.2 ± 3	1049 ± 3	1038.2 ± 3.1	1026.8 ± 3.1	1015.9 ± 3.3	1002.3 ± 3.3	988.9 ± 3.5	973.8 ± 3.7	957.9 ± 3.8
6000 kPa	1058.6 ± 3	1049.3 ± 3	1038.5 ± 3.1	1027.1 ± 3.1	1016.3 ± 3.3	1002.6 ± 3.4	989.1 ± 3.5	974.2 ± 3.7	958.2 ± 3.9
6500 kPa	1058.9 ± 3	1049.6 ± 3	1038.9 ± 3.1	1027.4 ± 3.1	1016.6 ± 3.3	1002.9 ± 3.3	989.5 ± 3.5	974.4 ± 3.7	958.5 ± 3.8
7000 kPa	1059.3 ± 3	1049.9 ± 3	1039.2 ± 3.1	1027.7 ± 3.1	1016.9 ± 3.3	1003.3 ± 3.4	989.7 ± 3.5	974.7 ± 3.7	958.8 ± 3.8
7500 kPa	1059.6 ± 3	1050.2 ± 3	1039.5 ± 3.1	1028.1 ± 3.1	1017.2 ± 3.3	1003.6 ± 3.3	990.1 ± 3.5	975 ± 3.7	959 ± 3.8
8000 kPa	1060 ± 3	1050.6 ± 3	1039.9 ± 3.1	1028.4 ± 3.2	1017.4 ± 3.3	1003.9 ± 3.3	990.4 ± 3.5	975.4 ± 3.7	959.4 ± 3.9
8500 kPa	1060.3 ± 3	1050.9 ± 3	1040.2 ± 3.1	1028.7 ± 3.1	1017.8 ± 3.3	1004.2 ± 3.4	990.6 ± 3.5	975.7 ± 3.7	959.7 ± 3.9
9000 kPa	1060.6 ± 3	1051.2 ± 3	1040.6 ± 3.1	1029.1 ± 3.2	1018.1 ± 3.3	1004.5 ± 3.3	991 ± 3.5	976 ± 3.7	960 ± 3.9
9500 kPa	1061 ± 3	1051.6 ± 3	1040.9 ± 3.1	1029.4 ± 3.2	1018.5 ± 3.3	1004.8 ± 3.4	991.2 ± 3.5	976.3 ± 3.7	960.3 ± 3.9
10000 kPa	1061.4 ± 3	1052 ± 3	1041.3 ± 3.1	1029.8 ± 3.2	1018.9 ± 3.3	1005.2 ± 3.4	991.6 ± 3.5	976.7 ± 3.7	960.6 ± 3.9
10500 kPa	1061.7 ± 3	1052.3 ± 3	1041.6 ± 3.1	1030.2 ± 3.2	1019.2 ± 3.3	1005.5 ± 3.4	992 ± 3.5	977 ± 3.8	960.9 ± 3.9
11000 kPa	1062 ± 3	1052.6 ± 3	1041.9 ± 3.1	1030.4 ± 3.2	1019.5 ± 3.3	1005.8 ± 3.4	992.3 ± 3.9	–	961.2 ± 3.2
11400 kPa	–	–	–	–	–	–	–	–	961.5 ± 3.9
11500 kPa	1062.3 ± 3	1052.9 ± 3	1042.2 ± 3.1	1030.7 ± 3.1	1019.9 ± 3.3	1006.1 ± 3.4	992.6 ± 3.5	977.6 ± 3.7	–
12000 kPa	1062.7 ± 3	1053.3 ± 3	1042.5 ± 3.1	1031 ± 3.1	1020.2 ± 3.3	1006.5 ± 3.4	992.9 ± 3.5	977.9 ± 3.7	961.8 ± 3.9
12500 kPa	1063 ± 3	1053.6 ± 3	1042.9 ± 3.1	1031.4 ± 3.2	1020.5 ± 3.3	1006.7 ± 3.4	993.2 ± 3.5	978.2 ± 3.7	962.1 ± 3.9
13000 kPa	1063.4 ± 3	1054 ± 3	1043.2 ± 3.1	1031.7 ± 3.2	1020.8 ± 3.3	1007 ± 3.4	993.5 ± 3.5	978.5 ± 3.7	962.4 ± 3.9
13500 kPa	1063.7 ± 3	1054.3 ± 3.1	1043.5 ± 3.1	1032 ± 3.2	1021.1 ± 3.3	1007.4 ± 3.4	993.8 ± 3.5	978.7 ± 3.8	962.6 ± 3.9
14000 kPa	1063.9 ± 3	1054.7 ± 3	1043.8 ± 3.1	1032.4 ± 3.2	1021.4 ± 3.3	1007.6 ± 3.4	994.1 ± 3.5	979 ± 3.8	963 ± 3.9
14500 kPa	1064.3 ± 3	1055 ± 3	1044.2 ± 3.1	1032.6 ± 3.2	1021.7 ± 3.3	1008 ± 3.4	994.4 ± 3.5	979.4 ± 3.8	963.2 ± 3.9
15000 kPa	1064.6 ± 3	1055.3 ± 3.1	1044.5 ± 3.1	1032.9 ± 3.2	1022 ± 3.3	1008.2 ± 3.4	994.7 ± 3.5	979.6 ± 3.8	963.4 ± 3.9
15500 kPa	1064.9 ± 3	1055.6 ± 3.1	1044.8 ± 3.1	1033.3 ± 3.2	1022.3 ± 3.3	1008.6 ± 3.4	995 ± 3.5	980 ± 3.8	963.8 ± 3.9
16000 kPa	1065.3 ± 3	1055.9 ± 3.1	1045.1 ± 3.1	1033.6 ± 3.2	1022.6 ± 3.3	1009 ± 3.4	995.3 ± 3.5	980.2 ± 3.8	964 ± 3.9
16400 kPa	–	–	–	–	–	–	–	980.5 ± 3.8	–
16500 kPa	1065.6 ± 3.1	1056.2 ± 3.1	1045.3 ± 3.1	1033.9 ± 3.2	1022.9 ± 3.3	1009.3 ± 3.4	995.6 ± 3.5	–	964.3 ± 2.8
17000 kPa	1065.9 ± 3.1	1056.5 ± 3.1	1045.7 ± 3.1	1034.2 ± 3.2	1023.2 ± 3.3	1009.6 ± 3.4	995.9 ± 3.5	980.8 ± 3.8	964.6 ± 3.9
17400 kPa	–	–	–	–	–	–	996.2 ± 3.5	–	–
17500 kPa	1066.2 ± 3.1	1056.8 ± 3.1	1046 ± 3.1	1034.6 ± 3.2	1023.5 ± 3.3	1009.9 ± 3.4	–	981.1 ± 3.8	964.9 ± 3.9
18000 kPa	1066.5 ± 3.1	1057.1 ± 3.1	1046.3 ± 3.1	1034.9 ± 3.2	1023.8 ± 3.3	1010.2 ± 3.4	996.5 ± 3.5	981.4 ± 3.8	965.2 ± 3.9
18500 kPa	1066.8 ± 3.1	1057.5 ± 3.1	1046.7 ± 3.1	1035.2 ± 3.2	1024 ± 3.3	1010.5 ± 3.4	996.9 ± 3.5	981.6 ± 3.8	965.4 ± 3.9
19000 kPa	1067.2 ± 3.1	1057.8 ± 3.1	1047 ± 3.1	1035.5 ± 3.2	1024.3 ± 3.3	1010.9 ± 3.4	997.1 ± 3.5	982 ± 3.8	965.7 ± 3.9
19500 kPa	1067.5 ± 3.1	1058.1 ± 3.1	1047.3 ± 3.1	1035.9 ± 3.2	1024.7 ± 3.3	1011.2 ± 3.4	997.4 ± 3.5	982.3 ± 3.8	966 ± 3.9
19900 kPa	–	–	–	–	–	–	997.6 ± 3.5	–	–
20000 kPa	1067.9 ± 3.1	1058.4 ± 3.1	1047.7 ± 3.1	1036.2 ± 3.2	1025 ± 3.3	1011.5 ± 3.4	–	982.6 ± 3.8	966.4 ± 3.9
